# Measured values taken from publication PMC10178848, “Modulating fast skeletal muscle contraction protects skeletal muscle in animal models of Duchenne muscular dystrophy” (The Journal of Clinical Investigation, 2023).
# Test system: GRMD plasma proteins
# Assay type: in vivo, dog
# Settings: Post-Treatment to GRMD baseline
smiles,measurement,setting,value
O=c1ccc(-c2cnc(OCC(F)(F)F)nc2)nn1Cc1cncc(F)c1 [EDG-5506],Protein jagged-1 (JAG1): Change from GRMD Baseline (fraction),Decreased in GRMD,0.0021 fraction
same,Retinol-binding protein 4 (RBP4): Change from GRMD Baseline (fraction),Decreased in GRMD,0.0032 fraction
same,Roundabout homolog 2 (ROBO2): Change from GRMD Baseline (fraction),Decreased in GRMD,-0.0814 fraction
same,SLIT and NTRK-like protein 5 (SLITRK5): Change from GRMD Baseline (fraction),Decreased in GRMD,-0.2994 fraction
same,SPARC (SPARC): Change from GRMD Baseline (fraction),Decreased in GRMD,-0.1611 fraction
same,Sclerostin (SOST): Change from GRMD Baseline (fraction),Decreased in GRMD,0.0855 fraction
same,Semaphorin-3E (SEMA3E): Change from GRMD Baseline (fraction),Decreased in GRMD,-0.1435 fraction
same,Semaphorin-5A (SEMA5A): Change from GRMD Baseline (fraction),Decreased in GRMD,-0.108 fraction
same,Serum albumin (ALB): Change from GRMD Baseline (fraction),Decreased in GRMD,-0.0304 fraction
same,Sialic acid-binding Ig-like lectin 6 (SIGLEC6): Change from GRMD Baseline (fraction),Decreased in GRMD,0.0534 fraction
same,Stem cell growth factor-alpha (CLEC11A): Change from GRMD Baseline (fraction),Decreased in GRMD,-0.1896 fraction
same,T-lymphocyte surface antigen Ly-9 (LY9): Change from GRMD Baseline (fraction),Decreased in GRMD,0.0022 fraction
same,TGF-beta receptor type-2 (TGFBR2): Change from GRMD Baseline (fraction),Decreased in GRMD,0.1736 fraction
same,Tropomyosin alpha-1 chain (TPM1): Change from GRMD Baseline (fraction),Decreased in GRMD,0.8207 fraction
same,Tumor necrosis factor receptor superfamily member 10B (TNFRSF10B): Change from GRMD Baseline (fraction),Decreased in GRMD,-0.0324 fraction
same,Tumor necrosis factor-inducible gene 6 protein (TNFAIP6): Change from GRMD Baseline (fraction),Decreased in GRMD,1.4994 fraction
same,Wnt inhibitory factor 1 (WIF1): Change from GRMD Baseline (fraction),Decreased in GRMD,-0.1154 fraction
same,Activated Protein C (PROC): Change from GRMD Baseline (fraction),Increased in GRMD,0.4863 fraction
same,Adiponectin (ADIPOQ): Change from GRMD Baseline (fraction),Increased in GRMD,0.0194 fraction
same,Alanine aminotransferase 1 (GPT): Change from GRMD Baseline (fraction),Increased in GRMD,0.0095 fraction
same,Alpha-2-antiplasmin (SERPINF2): Change from GRMD Baseline (fraction),Increased in GRMD,-0.0109 fraction
same,Apolipoprotein D (APOD): Change from GRMD Baseline (fraction),Increased in GRMD,0.0538 fraction
same,Apolipoprotein L1 (APOL1): Change from GRMD Baseline (fraction),Increased in GRMD,-0.0015 fraction
same,Asialoglycoprotein receptor 1 (ASGR1): Change from GRMD Baseline (fraction),Increased in GRMD,-0.0063 fraction
same,Bone morphogenetic protein 1 (BMP1): Change from GRMD Baseline (fraction),Increased in GRMD,-0.0803 fraction
same,Breast cancer anti-estrogen resistance protein 3 (BCAR3): Change from GRMD Baseline (fraction),Increased in GRMD,-0.0258 fraction
same,C5a anaphylatoxin (C5): Change from GRMD Baseline (fraction),Increased in GRMD,-0.0743 fraction
same,C-C motif chemokine 1 (CCL1): Change from GRMD Baseline (fraction),Increased in GRMD,0.0039 fraction
same,C-C motif chemokine 3 (CCL3): Change from GRMD Baseline (fraction),Increased in GRMD,-0.0317 fraction
same,C-X-C motif chemokine 5 (CXCL5): Change from GRMD Baseline (fraction),Increased in GRMD,0.0104 fraction
same,CD63 antigen (CD63): Change from GRMD Baseline (fraction),Increased in GRMD,-0.0301 fraction
same,CD97 antigen (CD97): Change from GRMD Baseline (fraction),Increased in GRMD,0.0218 fraction
same,CD109 antigen (CD109): Change from GRMD Baseline (fraction),Increased in GRMD,0.0141 fraction
same,CD177 antigen (CD177): Change from GRMD Baseline (fraction),Increased in GRMD,-0.108 fraction
same,Carbonic anhydrase 4 (CA4): Change from GRMD Baseline (fraction),Increased in GRMD,0.0571 fraction
same,Caspase-3 (CASP3): Change from GRMD Baseline (fraction),Increased in GRMD,-0.049 fraction
same,Cell adhesion molecule 3 (CADM3): Change from GRMD Baseline (fraction),Increased in GRMD,0.0642 fraction
same,"Change from GRMD Baseline (fraction): 1-phosphatidylinositol 4,5-bisphosphate phosphodiesterase gamma-1 (PLCG1)",Increased in GRMD,0.0175 fraction
same,"Change from GRMD Baseline (fraction): 14-3-3 protein family (YWHAB,YWHAE,YWHAG,YWHAH,YWHAQ,YWHAZ,SFN)",Increased in GRMD,-0.0622 fraction
same,Change from GRMD Baseline (fraction): 26S proteasome non-ATPase regulatory subunit 7 (PSMD7),Increased in GRMD,-0.0966 fraction
same,Change from GRMD Baseline (fraction): 40S ribosomal protein S7 (RPS7),Increased in GRMD,-0.1727 fraction
same,Change from GRMD Baseline (fraction): A disintegrin and metalloproteinase with thrombospondin motifs 5 (ADAMTS5),Increased in GRMD,0.0247 fraction
same,Change from GRMD Baseline (fraction): A disintegrin and metalloproteinase with thrombospondin motifs 15 (ADAMTS15),Increased in GRMD,0.1616 fraction
same,Change from GRMD Baseline (fraction): AH receptor-interacting protein (AIP),Increased in GRMD,0.0125 fraction
same,Change from GRMD Baseline (fraction): AMP Kinase (alpha2beta2gamma1) (PRKAA2 PRKAB2 PRKAG1),Increased in GRMD,-0.177 fraction
same,"Change from GRMD Baseline (fraction): ATP synthase subunit beta, mitochondrial (ATP5B)",Increased in GRMD,0.0065 fraction
same,Change from GRMD Baseline (fraction): ATP-dependent RNA helicase DDX19B (DDX19B),Increased in GRMD,-0.0978 fraction
same,Change from GRMD Baseline (fraction): Acidic leucine-rich nuclear phosphoprotein 32 family member B (ANP32B),Increased in GRMD,-0.0886 fraction
same,Change from GRMD Baseline (fraction): Activin receptor type-1B (ACVR1B),Increased in GRMD,-0.017 fraction
same,Change from GRMD Baseline (fraction): Adenylate kinase isoenzyme 1 (AK1),Increased in GRMD,-0.2055 fraction
same,Change from GRMD Baseline (fraction): Adenylosuccinate lyase (ADSL),Increased in GRMD,0.0105 fraction
same,Change from GRMD Baseline (fraction): Afamin (AFM),Increased in GRMD,-0.0171 fraction
same,Change from GRMD Baseline (fraction): Aflatoxin B1 aldehyde reductase member 2 (AKR7A2),Increased in GRMD,-0.0506 fraction
same,Change from GRMD Baseline (fraction): Alcohol dehydrogenase [NADP(+)] (AKR1A1),Increased in GRMD,-0.1025 fraction
same,Change from GRMD Baseline (fraction): Aminoacylase-1 (ACY1),Increased in GRMD,-0.1248 fraction
same,Change from GRMD Baseline (fraction): Amphoterin-induced protein 2 (AMIGO2),Increased in GRMD,-0.0371 fraction
same,Change from GRMD Baseline (fraction): Annexin A6 (ANXA6),Increased in GRMD,-0.0862 fraction
same,Change from GRMD Baseline (fraction): Anterior gradient protein 2 homolog (AGR2),Increased in GRMD,0.2414 fraction
same,Change from GRMD Baseline (fraction): Apolipoprotein E (APOE),Increased in GRMD,0.0948 fraction
